The data set is described as follows: gradient 5% acetonitrile 3 min, to 50% in 2 min, to 85% in 15 min, held 3 min, 100 µL/min. Particulars: column: Zorbax Extend-C18 2.1 x 50 mm; eluents: water / acetonitrile, 0.1% formic acid. Put shortly:
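Retention time was recorded from adduct peaks, which were picked computationally and each inspected manually. Pure standards ran in mixtures of ~100 molecules on HPLC coupled to a quadrupole time-of-flight mass spectrometer, in positive and negative ionization mode, through a Zorbax Extend-C18 column (2.1 × 50 mm, 1.8 μm) at 100 μL/min. Eluents were water and acetonitrile, each with 0.1% formic acid.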
Consider `Cc1nc(C)c(C(=O)N/N=C/c2ccc(N(CCCl)CCCl)cc2)s1`, for which the RP-LC retention time came out at 942 s.

In turn, `COc1cc(OC)cc(-c2nnc(Cc3nc(-c4ccc5c(c4)OCO5)no3)o2)c1` had an RP-LC retention time of 978 s.

On to `CC(=O)N1c2ccc(S(=O)(=O)N3CCCCC3)cc2CC1C(=O)NCCc1ccc(Cl)cc1` (stereo not drawn), for which the RP-LC retention time was found to be 924 s.

In the case of `O=C(N[C@H]1C[C@@H]2C[C@H]1CN2S(=O)(=O)c1cccnc1)c1ccccc1`, the RP-LC retention time stood at 697 s.

Turning to `CCCn1cc(S(=O)(=O)N2CCN(c3ccccc3Cl)CC2)c2cccnc21`, the RP-LC retention time amounted to 1150 s.

On to `O=c1ccc(N2CCC(NS(=O)(=O)c3cccnc3)C2)nn1CCOc1ccccc1` (stereo not drawn), for which the RP-LC retention time was found to be 738 s.

With `Cc1ccc(Sc2nccnc2N2CCC(C(=O)N3CCN(c4ccc(C)cc4)CC3)CC2)cc1`, the RP-LC retention time was determined as 1290 s.

On to `CCn1c(=O)c(N2CCC(C(=O)NCCN3CCCCCC3)CC2)nc2cccnc21`, for which the RP-LC retention time amounted to 646 s.

With `CCOc1ccc(NC(=O)N(C)CCc2noc(COc3ccccc3)n2)cc1`, the RP-LC retention time came out at 890 s.

On to `CCCNC(=O)c1nc(Nc2ccc(F)cc2)c2ccccc2n1`, for which the RP-LC retention time was 746 s.

In turn, `COc1ccc(N2CCN(Cc3nc4ccccc4[nH]c3=O)CC2)cc1` came in with an RP-LC retention time of 614 s.

In the case of `CC(C)N1C(=O)C(C)(C(=O)Nc2ccc(F)c(Cl)c2)Oc2cccnc21` (stereo not drawn), the RP-LC retention time was found to be 1070 s.

Consider `NC(=NCc1ccc(Cl)cc1Cl)NC(=O)c1nc(Cl)c(N)nc1N`, for which the RP-LC retention time stood at 770 s.

The compound `COc1ccc(C)cc1NC(=O)C(C)C1CCN(C(=O)Nc2ccc(Cl)cc2)CC1` (stereo not drawn) came in with an RP-LC retention time of 986 s.

The compound `CC(C)n1c(=O)oc2cc(-c3noc(-c4ccc(F)cc4)n3)ccc21` returned an RP-LC retention time of 1170 s.

As for `Cc1ccc2c(c1)N(S(C)(=O)=O)CCC(C(=O)NC1CCCCCC1)O2` (stereo not drawn), the RP-LC retention time was 957 s.

On to `CCN(CC)C(=O)c1cnc2nc(C)ccc2c1Nc1ccc(CC(=O)O)cc1`, for which the RP-LC retention time amounted to 1020 s.

The compound `O=C(NC1CCCC1)C1CCCCN1S(=O)(=O)c1ccc(F)cc1` (stereo not drawn) registered an RP-LC retention time of 941 s.

As for `CN(C)S(=O)(=O)c1ccc2c(c1)N(CC(=O)NCc1ccc(Cl)cc1)C(=O)C1CCCCN21` (stereo not drawn), the RP-LC retention time was found to be 932 s.

In turn, `O=C([C@@H]1C[C@H](F)CN1S(=O)(=O)c1cc(F)cc(F)c1)N1CCc2ccccc2C1` returned an RP-LC retention time of 961 s.

On to `O=C1CCCc2c1cc(C(=O)N1CCCCC1)c(=O)n2-c1ccc(F)cc1`, for which the RP-LC retention time stood at 704 s.

Take `CCCN(CCC)C(=O)C1CCN(C(=O)c2ccccc2Cl)CC1`: the RP-LC retention time amounted to 602 s.

For the compound `Cc1noc(-c2cccc(OC3CN(C(=O)Cc4ccccc4)C3)c2)n1`, the RP-LC retention time was found to be 854 s.

Consider `CCCN1CCn2cc(S(=O)(=O)Nc3ccc(F)cc3)cc2C1=O`, for which the RP-LC retention time is 750 s.

Consider `Cn1nc(C(=O)NC2CCCN(c3cc(-c4ccc(Cl)cc4)[nH]n3)C2)c2ccccc21` (stereo not drawn), for which the RP-LC retention time came to 935 s.

`O=S(=O)(c1ccc(F)cc1)N1CCC(Cc2nncn2-c2ccccc2)CC1` gave an RP-LC retention time of 787 s.

Compound `Cn1c(CNc2nc3ccncc3n(Cc3ccccc3)c2=O)nc2ccccc21` showed an RP-LC retention time of 571 s.

In turn, `CCS(=O)(=O)N1CCCc2cc(C(=O)NC3CCCC3)ccc21` gave an RP-LC retention time of 837 s.

In turn, `O=C(CN1CC=C(c2cnn(-c3ccccc3)c2)CC1)NCc1ccccn1` had an RP-LC retention time of 594 s.

`CCCNc1cc(N2CCC(CCC(=O)NCc3ccccc3Cl)CC2)ncn1` returned an RP-LC retention time of 718 s.

In turn, `COc1ccc(-c2cc(=O)n3c4ccccc4n(CC(=O)Nc4ccc5c(c4)OCO5)c3n2)cc1` showed an RP-LC retention time of 720 s.

`COc1cc(CNC(=O)c2cn3ccc(C)cc3n2)cc(OC)c1`: the RP-LC retention time is 632 s.

`CCOc1cccc(-c2noc(Cn3ccn(-c4c(C)cccc4C)c(=O)c3=O)n2)c1`: the RP-LC retention time turned out to be 951 s.

On to `CC(=O)Nc1c(C)nn(-c2ccccc2)c1N1CCC(C(=O)N2CCN(C3CCCCC3)CC2)CC1`, for which the RP-LC retention time amounted to 597 s.

The compound `CN1CCN(CCCNC(=O)C2c3ccccc3C(=O)N(C)C2c2cccs2)CC1` (stereo not drawn) yielded an RP-LC retention time of 573 s.

`O=C(CC1CCN(C(=O)c2ccc3oc(-c4ccccc4)nc3c2)CC1)N1CCOCC1` had an RP-LC retention time of 682 s.

Compound `CCc1noc(NC(C)=O)c1-c1ccc(OC)c(S(=O)(=O)Nc2cccc(Cl)c2)c1` showed an RP-LC retention time of 831 s.

In turn, `Nc1ccc(Br)cc1Br` came in with an RP-LC retention time of 1000 s.

Compound `CCc1nc(-c2csc(S(=O)(=O)N3CCC(C(=O)Nc4ccc(Cl)cc4C)CC3)c2)no1` had an RP-LC retention time of 1180 s.

For `Cc1cccc(CC(=O)NCCCN2CCN(c3ccccc3)CC2)c1`, the RP-LC retention time worked out at 601 s.

For `O=S(=O)(c1cccnc1)N1CCCC(c2nnc(C(F)(F)F)o2)C1` (stereo not drawn), the RP-LC retention time stood at 747 s.

With `Nc1cc(C2CCN(C(=O)c3ccc(F)c(F)c3)CC2)no1`, the RP-LC retention time was 680 s.

In the case of `Cn1c(C(=O)N2CCCC(C(=O)N3CCc4ccccc4C3)C2)cc2sccc21` (stereo not drawn), the RP-LC retention time worked out at 925 s.

`Cc1ccc(CNC(=O)N2CCc3c(c(-c4nc(C5CC5)no4)nn3C)C2)cc1` returned an RP-LC retention time of 828 s.

The compound `CCn1cc(C(=O)NCc2ccccn2)c(S(=O)(=O)N2CCSCC2)n1` came in with an RP-LC retention time of 647 s.

As to `Cc1c(C(=O)NCC2CCCO2)cnn1-c1cc(-c2nc(C3CC3)no2)ccn1` (stereo not drawn), the RP-LC retention time was found to be 837 s.

For `O=C(Cn1ccn2nc(-c3ccc(F)cc3)c(CO)c2c1=O)Nc1ccc2c(c1)OCCO2`, the RP-LC retention time stood at 786 s.

`O=C(C1CCCN(c2ncnc3c2nc2n3CCCCC2)C1)N1CCN(c2ncccn2)CC1` (stereo not drawn) displayed an RP-LC retention time of 690 s.

The compound `CCc1cc(=O)n(CC(=O)Nc2ccc(C)cc2C)c(N2CCOCC2)n1` registered an RP-LC retention time of 767 s.

Consider `CCc1ccc(C(C)NC(=O)C2CCN(Cc3cn(C)c4ccccc34)CC2)cc1` (stereo not drawn), for which the RP-LC retention time was 764 s.

With `CCc1noc(-c2ccnc(-n3ncc(C(=O)NC4CCCC4)c3C)c2)n1`, the RP-LC retention time is 687 s.

Compound `Cc1cc2c(cc1S(=O)(=O)N1CCCC1C(=O)NCc1ccc(F)cc1)OCC(=O)N2` (stereo not drawn) registered an RP-LC retention time of 712 s.

As for `Cc1ccccc1CN1CCC(CNS(=O)(=O)c2ccc3c(c2)CCCC(=O)N3)CC1`, the RP-LC retention time is 616 s.

Regarding `Cc1ccccc1-c1ccc(N2CCCC(C(=O)NC(C)CCc3ccccc3)C2)nn1` (stereo not drawn), the RP-LC retention time turned out to be 817 s.

`Cc1ccc(-c2cc3c4nn(CC(=O)NC5CCCC5)c(=O)n4ccn3n2)cc1C` displayed an RP-LC retention time of 918 s.

Take `Nc1nc(N2CCN(C3CCCCC3)CC2)ncc1C(=O)NCc1ccccc1F`: the RP-LC retention time was 629 s.

Turning to `CCNC(=O)C1CCN(C(=O)N2C[C@H]3C[C@H](C2)[C@H]2CCCC(=O)N2C3)CC1`, the RP-LC retention time came to 599 s.

Compound `Cc1nn2c(C)c(C(=O)OC(C)C)nnc2c1-c1ccc(F)cc1` displayed an RP-LC retention time of 1060 s.

The record behind these values is the METLIN SMRT retention time set (Domingo-Almenara et al. 2019).
